Like-named read-outs stand apart in the source and are kept apart here. Starred links: 1 amine or outer side, 2 acyl side, 3 side chain; linkers in the order of their positions; H or OH if unused. Positions of bridges follow the written chain, without caps; N, C: chain ends. Non-standard residues stand in square brackets, D forms with d. Residues, ends and D or L forms follow the SMILES beside them. *: point of attachment. Bip(4'-NH) = O=C([C@H](Cc1ccc(-c2ccc(N[*:3])cc2)cc1)N[*:1])[*:2]; dArg(ω-(3-HO-benzyl)) = N=C(NCCC[C@@H](N)C(=O)O)NCc1cccc(O)c1; Indazole3carbonyl(1-CH2COOH) = O=C(O)Cn1nc(C(=O)*)c2ccccc21; Bip(4'-COOH) = N[C@@H](Cc1ccc(-c2ccc(C(=O)O)cc2)cc1)C(=O)O; Bip(4'-NHAc) = CC(=O)Nc1ccc(-c2ccc(C[C@H](N)C(=O)O)cc2)cc1; Ala(imidazol-2-yl) = N[C@@H](Cc1ncc[nH]1)C(=O)O; Ala(morpholin-4-yl) = N[C@@H](CN1CCOCC1)C(=O)O; X88 = CC(=O)N[C@@H](Cc1ccc(OCC(=O)O)cc1)C(=O)*; Bip = N[C@@H](Cc1ccc(-c2ccccc2)cc1)C(=O)O; Val(3-OH) = CC(C)(O)[C@H](N)C(=O)O; X86 = O=C(O)Cn1ccc2cc(C(=O)*)ccc21; 2Thi = N[C@@H](Cc1cccs1)C(=O)O; Tle = CC(C)(C)[C@H](N)C(=O)O; Sar = CNCC(=O)O
Biological target: TNFα (Homo sapiens, UniProt P01375)
Test: TNF-Induced HEK-Blue Assay
Assay type: cell-based
[1] = HEK-Blue-CD40L cells, NF-kB-driven secreted alkaline phosphatase reporter, TNFα 0.5 ng/ml, 18 h, read-out: TNF induced HEK-Blue assay IC50 value

TNFα, sequence (P01375 77-233 limits assumed): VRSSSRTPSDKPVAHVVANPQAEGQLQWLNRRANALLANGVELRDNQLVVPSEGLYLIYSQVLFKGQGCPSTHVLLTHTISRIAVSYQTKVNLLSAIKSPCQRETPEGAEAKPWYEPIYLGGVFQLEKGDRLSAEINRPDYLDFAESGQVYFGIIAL

Row | IC50 [1] [nM] | SMILES | IC50 [nM]
1 | 200 to 2000 | CC(=O)Nc1ccc(-c2ccc(C[C@@H]3NC(=O)[C@H](Cc4ccc(-c5ccc(C(=O)O)cc5)cc4)NC(=O)[C@H](CN4CCOCC4)NC(=O)CSC[C@@H](C(=O)NCC(N)=O)NC(=O)[C@H](CC(C)C)NC(=O)[C@H](Cc4ccc(O)cc4)NC(=O)[C@H](C(C)C)NC(=O)[C@@H]4CCCN4C(=O)[C@H](C(C)C)NC(=O)[C@@H](CCCNC(=N)N)NC(=O)[C@H](CC(=O)O)NC(=O)[C@@H]4CCCN4C(=O)CN(C)C3=O)cc2)cc1 [Example 236] ({CH2CO}-[Ala(morpholin-4-yl)][Bip(4'-COOH)][Bip(4'-NHAc)][Sar]PD[dR]VPVYLCG-NH2; thioether N-13) | 
2 | < 50 | CC(C)C[C@@H]1NC(=O)[C@H](CCCNC(=N)N)NC(=O)[C@H](C(C)C)NC(=O)[C@@H]2CCCN2C(=O)[C@H](C(C)C)NC(=O)[C@@H](CCCNC(=N)N)NC(=O)[C@H](CC(=O)O)NC(=O)[C@@H]2CCCN2C(=O)CN(C)C(=O)[C@H](Cc2ccc(-c3ccc(NC(=O)c4ccc5c(ccn5CC(=O)O)c4)cc3)cc2)NC(=O)[C@H](Cc2ccc(-c3ccccc3)cc2)NC(=O)[C@H](CN2CCOCC2)NC(=O)CSC[C@@H](C(=O)NCC(N)=O)NC1=O [Example 398] ({CH2CO}-[Ala(morpholin-4-yl)][Bip][Bip(4'-NH)](X86)[Sar]PD[dR]VPVRLCG-NH2; thioether N-13) | 
3 |  | CC[C@H](C)[C@@H]1NC(=O)[C@@H](CCCNC(=N)NCc2cccc(O)c2)NC(=O)[C@H](CC(=O)O)NC(=O)[C@@H]2CCCN2C(=O)CN(C)C(=O)[C@H](Cc2ccc(-c3ccc(NC(=O)c4nn(CC(=O)O)c5ccccc45)cc3)cc2)NC(=O)[C@H](Cc2ccc(-c3ccccc3)cc2)NC(=O)[C@H](CN2CCOCC2)NC(=O)CSC[C@@H](C(=O)NCC(N)=O)NC(=O)[C@H](CC(C)C)NC(=O)[C@H](Cc2cnc[nH]2)NC(=O)[C@H](C(C)C)NC(=O)[C@@H]2CCCN2C1=O [Example 637] ({CH2CO}-[Ala(morpholin-4-yl)][Bip][Bip(4'-NH)](Indazole3carbonyl(1-CH2COOH))[Sar]PD[dArg(ω-(3-HO-benzyl))]IPVHLCG-NH2; thioether N-13) | < 50
4 | < 50 | CC(=O)Nc1ccc(-c2ccc(C[C@@H]3NC(=O)[C@H](Cc4ccc(-c5ccc(C(=O)O)cc5)cc4)NC(=O)[C@H](CN4CCOCC4)NC(=O)CSC[C@@H](C(=O)NCC(N)=O)NC(=O)[C@H](CC(C)C)NC(=O)[C@H](Cc4cccs4)NC(=O)[C@H](C(C)C)NC(=O)[C@@H]4CCCN4C(=O)[C@H](C(C)C)NC(=O)[C@@H](CCCNC(=N)N)NC(=O)[C@H](CC(=O)O)NC(=O)[C@H](Cc4cnc[nH]4)NC(=O)CN(C)C3=O)cc2)cc1 [Example 453] ({CH2CO}-[Ala(morpholin-4-yl)][Bip(4'-COOH)][Bip(4'-NHAc)][Sar]HD[dR]VPV[2Thi]LCG-NH2; thioether N-13) | 
5 | 50 to 200 | CC(C)C[C@@H]1NC(=O)[C@H](CCCNC(=N)N)NC(=O)[C@H](C(C)C)NC(=O)[C@@H]2CCCN2C(=O)[C@H](C(C)C)NC(=O)[C@@H](CCCNC(=N)N)NC(=O)[C@H](CC(=O)O)NC(=O)[C@@H]2CCCN2C(=O)CN(C)C(=O)[C@H](Cc2ccc(-c3ccccc3)cc2)NC(=O)[C@H](Cc2ccc(-c3ccc(C(=O)O)cc3)cc2)NC(=O)[C@H](CN2CCOCC2)NC(=O)CSC[C@@H](C(=O)NCC(N)=O)NC1=O [Example 123] ({CH2CO}-[Ala(morpholin-4-yl)][Bip(4'-COOH)][Bip][Sar]PD[dR]VPVRLCG-NH2; thioether N-13) | 
6 | < 50 | CC[C@H](C)[C@@H]1NC(=O)[C@@H]2CCCN2C(=O)[C@H]([C@@H](C)CC)NC(=O)[C@@H](CCCNC(=N)N)NC(=O)[C@H](CC(=O)O)NC(=O)[C@H](Cc2ccccc2)NC(=O)CN(C)C(=O)[C@H](Cc2ccc(-c3ccc(NC(=O)[C@H](Cc4ccc(OCC(=O)O)cc4)NC(C)=O)cc3)cc2)NC(=O)[C@H](Cc2ccc(-c3ccc(C(=O)O)cc3)cc2)NC(=O)[C@H](C(C)(C)C)NC(=O)CSC[C@@H](C(=O)NCC(N)=O)NC(=O)[C@H](CC(C)C)NC(=O)[C@H](Cc2ncc[nH]2)NC1=O [Example 417] ({CH2CO}-[Tle][Bip(4'-COOH)][Bip(4'-NH)](X88)[Sar]FD[dR]IPI[Ala(imidazol-2-yl)]LCG-NH2; thioether N-13) | 
7 | < 50 | CC[C@H](C)[C@@H]1NC(=O)CSC[C@@H](C(=O)NCC(N)=O)NC(=O)[C@H](CC(C)C)NC(=O)[C@H](Cc2ccc(O)cc2)NC(=O)[C@H](C(C)C)NC(=O)[C@@H]2CCCN2C(=O)[C@H](C(C)C)NC(=O)[C@@H](CCCNC(=N)N)NC(=O)[C@H](CC(=O)O)NC(=O)[C@H](Cc2ccc(O)cc2)NC(=O)CN(C)C(=O)[C@H](Cc2ccc(-c3ccccc3)cc2)NC(=O)[C@H](Cc2ccc(-c3ccc(C(=O)O)cc3)cc2)NC1=O [Example 188] ({CH2CO}-I[Bip(4'-COOH)][Bip][Sar]YD[dR]VPVYLCG-NH2; thioether N-13) | 
8 | < 50 | CC(C)C[C@@H]1NC(=O)[C@H](Cc2ccc(O)cc2)NC(=O)[C@H](C(C)C)NC(=O)[C@@H]2CCCN2C(=O)[C@H](C(C)C)NC(=O)[C@@H](CCCNC(=N)N)NC(=O)[C@H](CC(=O)O)NC(=O)[C@H](Cc2ccc(O)cc2)NC(=O)CN(C)C(=O)[C@H](Cc2ccc(-c3ccccc3)cc2)NC(=O)[C@H](Cc2ccc(-c3ccccc3)cc2)NC(=O)[C@H](C(C)(C)O)NC(=O)CSC[C@@H](C(=O)NCC(N)=O)NC1=O [Example 69] ({CH2CO}-[Val(3-OH)][Bip][Bip][Sar]YD[dR]VPVYLCG-NH2; thioether N-13) | 
